The target of one data set is T1, human GRP receptors (Homo sapiens, UniProt P30550).
T1 construct: host or cells: U2OS
Kind of data set: IP1 GRPR activity: HTRF IP1-Gq assay in U2OS cells stably expressing human GRP receptors. The following applies: 90 minutes incubation, read-out: hIP1 GRPR EC50. The class given is cell-based. In general terms: Time-resolved FRET reads energy transfer from a long-lived donor to a nearby acceptor.

The nature of data set [1]: Food intake and body weight after subcutaneous administration in mice, 16 hours (Example A-2b). Type of data set: in vivo. The following applies: male C57BL/6J mice, single subcutaneous dose, peptide 500 nmol/kg, high fat diet. The source says:
Male C57BL/6J mice, approximately 10 weeks old (Jackson Laboratory), were group housed in a 12-h light cycle room (6:00 AM on, 6:00 PM off) upon arrival and acclimated to the facility for a minimum of 1 week prior to the study. Animals were provided standard rodent chow (PicoLab Rodent Diet, 5053) ad libitum. Animals were single caged for a minimum of 3 days prior to the study. During the period prior to the study day, mice were exposed to one pellet of high fat diet (Research Diets D12492i) to avoid any effects of novelty in the study. On three separate days during this run-in period, mice were given one dose of phosphate-buffered saline (PBS; 5 mL/kg) by subcutaneous injection to acclimate them to the procedure. For baseline measures, pre-weighed meals of standard rodent chow were provided to each animal following acclimation dosing at 3:30 PM, and body weight was recorded. The next morning at 9:30 AM, food intake and body weight measurements were recorded at 16 hours following the presentation of the pre-weighed meal. These measurements and the resulting body weight changes were then used to assign mice to balanced cohorts. On the day of the study, mice were weighed and given a subcutaneous dose of either vehicle (PBS, 5 mL/kg; pH 5.0-8.5) or a peptide of the disclosure (500 nmol/kg; pH 5.0-8.5). Following dosing, a pre-weighed high fat diet was provided. Food intake and body weight measurements were taken at 16 hours following the provision of the pre-weighed high fat diet. […] Table 6 below describes the percent reduction in food intake and the percent body weight (BW) change with peptides as measured relative to the vehicle group.

The nature of data set [2]: Pharmacokinetics after intravenous peptide administration in mice. Also on record: species or system C57BL/6 mice. The following applies: C57BL/6, mouse, in vivo, iv, 2 mg/kg. How it is done: GPR-10 and peptides were dosed IV at 2 mg/kg as a formulation of 0.4 mg/mL in […]+65% water (pH 6-7).
The nature of the next data set: physchem. The class given is physicochemical. The settings on record: pH 8. How it is done: Solubility was measured in an appropriate buffer as follows. A known amount of compound, e.g., 20 mg, was placed in a vessel equipped with a stirring bar. A measured amount of buffer (e.g., 200-400 μL of 200 mM phosphate buffer) was added, and in some cases, additional surfactants, e.g., polysorbate 80 (PS80), polyethylene glycol (15)-hydroxystearate (Solutol® HS15), etc., were added. A measured amount of purified water (e.g., 1.6 mL) was added, and the pH was adjusted to the desired pH, e.g., pH 8, by addition of 0.5 N aqueous NaOH or 0.5 N aqueous HCl. The volume of added acid or base was recorded. The mixture was stirred at 300 rpm for 10 min. Additional purified water was added to reach a given volume, e.g., 4 mL, of solution. After stirring the sample at 300 rpm at room temperature for 1 h or 24 h, the appearance was observed and the pH measured.

≈ marks a conversion by molar mass, not a printed value. Starred links: 1 amine or outer side, 2 acyl side, 3 side chain; linkers in the order of their positions; H or OH if unused. Non-standard residues stand in square brackets, D forms with d. Residues, ends and D or L forms follow the SMILES beside them. *: point of attachment. Trp(7-Me) = Cc1cccc2c(C[C@H](N)C(=O)O)c[nH]c12; C20 diacid = O=C(O)CCCCCCCCCCCCCCCCCCC(=O)*; γGlu = O=C(O)[C@H](CCC(=O)[*:2])N[*:1]; Nle = CCCC[C@H](N)C(=O)O; β3hA = C[C@H](N)CC(=O)O; AEEA = NCCOCCOCC(=O)O

T1 sequence (P30550 whole entry): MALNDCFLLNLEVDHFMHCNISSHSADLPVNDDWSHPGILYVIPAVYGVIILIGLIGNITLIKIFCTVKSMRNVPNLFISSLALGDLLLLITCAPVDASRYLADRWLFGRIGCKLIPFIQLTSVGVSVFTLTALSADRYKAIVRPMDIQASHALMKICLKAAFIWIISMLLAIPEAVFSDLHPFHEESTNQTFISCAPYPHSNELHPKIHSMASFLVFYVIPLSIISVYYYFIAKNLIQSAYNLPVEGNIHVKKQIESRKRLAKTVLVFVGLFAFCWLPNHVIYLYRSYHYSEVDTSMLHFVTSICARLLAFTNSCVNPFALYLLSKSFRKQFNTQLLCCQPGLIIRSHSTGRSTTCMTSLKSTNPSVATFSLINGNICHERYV

As a reminder, the EC50 is the concentration that produces a half-maximal response. Usually clearance stands for a measure of how efficiently the substance is removed, as volume per time. Usually half-life stands for the time needed for the level to fall by half in the phase considered. The low end stands for fast loss, the high end for slow loss. Broadly, the solubility is the concentration that dissolves in the medium under given conditions. Regarding `CCCC[C@H](NC(=O)[C@H](CC(C)C)NC(=O)[C@H](Cc1c[nH]cn1)NC(=O)C[C@H](C)NC(=O)[C@@H](NC(=O)[C@H](C)NC(=O)[C@H](Cc1c[nH]c2c(C)cccc12)NC(=O)[C@H](Cc1c[nH]cn1)NC(=O)[C@H](CCC(=O)O)NC(=O)CNC(=O)COCCOCCNC(=O)COCCOCCNC(=O)CC[C@H](NC(=O)CC[C@H](NC(=O)CCCCCCCCCCCCCCCCCCC(=O)O)C(=O)O)C(=O)O)C(C)C)C(N)=O` [Peptide 247, Eicosanedioyl-γGlu-γGlu-OEG-OEG-Gly-Glu-His-7MeTrp-Ala-Val-BABA-His-Leu-Nle-NH2] ({C20 diacid-γGlu-γGlu-AEEA-AEEA}-GEH[Trp(7-Me)]AV[β3hA]HL[Nle]-NH2), the EC50 at human GRP receptors is 1.8 nM. In addition, in data set [1], the “% Body Weight Change at 16 hours (compared with vehicle)” value was −11% and the “% Reduction in Cumulative Food Intake over 16 hours (compared with vehicle)” value is 65%. Further, in data set [2], the clearance came out at 0.18 mL/min/kg and the half-life is 7.5 h. In “physchem”, this compound came in with a solubility at 24 h of 4200 µg/mL (≈ 2070 µM).

(Values after patent publication US20260176319A1, “PEPTIDE ANALOGS AND METHODS OF USING THE SAME” (Kallyope, Inc., priority 2024, published 2026).)
